# Results as given in PubChem BioAssay (NCI).
#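 Where inhibition never reached the appropriate level, the endpoint shown equals the highest concentration tested. Otherwise, values were interpolated linearly from a five-concentration, 48-hour dose response in 96-well plates. Here, GI50 denotes the concentration required for 50% inhibition of growth. TGI marks complete inhibition of growth.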
# What was measured:
# Assay in all cases: DTP human tumour cell line panel, 48 h
# DLD-1 colon = tested on: DLD-1 colon
# SNB-78 CNS = tested on: SNB-78 CNS
# MALME-3M melanoma = tested on: MALME-3M melanoma
# SW-620 colon = tested on: SW-620 colon
# SN12C renal = tested on: SN12C renal
# NCI-H460 lung = tested on: NCI-H460 lung
# M14 melanoma = tested on: M14 melanoma
# U251 CNS = tested on: U251 CNS
# OVCAR-3 ovarian = tested on: OVCAR-3 ovarian
# SF-295 CNS = tested on: SF-295 CNS
# SF-268 CNS = tested on: SF-268 CNS
# NCI-H23 lung = tested on: NCI-H23 lung
# RPMI-8226 leukemia = tested on: RPMI-8226 leukemia
# OVCAR-4 ovarian = tested on: OVCAR-4 ovarian
# HCT-15 colon = tested on: HCT-15 colon
# SK-MEL-5 melanoma = tested on: SK-MEL-5 melanoma
# SK-MEL-2 melanoma = tested on: SK-MEL-2 melanoma
# 786-0 renal = tested on: 786-0 renal
# SF-539 CNS = tested on: SF-539 CNS
# NCI-H522 lung = tested on: NCI-H522 lung
# CAKI-1 renal = tested on: CAKI-1 renal
# KM20L2 colon = tested on: KM20L2 colon
# TK-10 renal = tested on: TK-10 renal
# KM12 colon = tested on: KM12 colon
# A549 NSCLC = tested on: A549 NSCLC
# A498 renal = tested on: A498 renal
# SNB-19 CNS = tested on: SNB-19 CNS
# EKVX NSCLC = tested on: EKVX NSCLC
# HCT-116 colon = tested on: HCT-116 colon
# MOLT-4 leukemia = tested on: MOLT-4 leukemia
# UACC-257 melanoma = tested on: UACC-257 melanoma
# HOP-18 NSCLC = tested on: HOP-18 NSCLC
# CCRF-CEM leukemia = tested on: CCRF-CEM leukemia
# HOP-62 NSCLC = tested on: HOP-62 NSCLC
# OVCAR-8 ovarian = tested on: OVCAR-8 ovarian
# LXFL 529 NSCLC = tested on: LXFL 529 NSCLC
# SNB-75 CNS = tested on: SNB-75 CNS
# XF 498 CNS = tested on: XF 498 CNS
# UO-31 renal = tested on: UO-31 renal
# HCC-2998 colon = tested on: HCC-2998 colon
# K-562 leukemia = tested on: K-562 leukemia
# ACHN renal = tested on: ACHN renal
# HT29 colon = tested on: HT29 colon
# SK-MEL-28 melanoma = tested on: SK-MEL-28 melanoma
# OVCAR-5 ovarian = tested on: OVCAR-5 ovarian
# RXF 393 renal = tested on: RXF 393 renal
# M19-MEL melanoma = tested on: M19-MEL melanoma
# LOX IMVI melanoma = tested on: LOX IMVI melanoma
# SK-OV-3 ovarian = tested on: SK-OV-3 ovarian
# NCI-H226 lung = tested on: NCI-H226 lung
# IGROV1 ovarian = tested on: IGROV1 ovarian
# UACC-62 melanoma = tested on: UACC-62 melanoma
# HOP-92 NSCLC = tested on: HOP-92 NSCLC
# SR leukemia = tested on: SR leukemia
smiles,measurement,setting,value
COc1ccc2ccnc(Cc3ccc(OCc4ccccc4)c(OC)c3)c2c1,TGI,DLD-1 colon,> 100 µM
same,TGI,SNB-78 CNS,67.6 µM
same,TGI,MALME-3M melanoma,33.9 µM
same,TGI,SW-620 colon,> 100 µM
same,TGI,SN12C renal,29.8 µM
same,TGI,NCI-H460 lung,37.8 µM
same,TGI,M14 melanoma,33.2 µM
same,TGI,U251 CNS,44.6 µM
same,TGI,OVCAR-3 ovarian,34.2 µM
same,TGI,SF-295 CNS,68.1 µM
same,TGI,SF-268 CNS,70.3 µM
same,TGI,NCI-H23 lung,53 µM
same,TGI,RPMI-8226 leukemia,65.3 µM
same,TGI,OVCAR-4 ovarian,34 µM
same,TGI,HCT-15 colon,44.9 µM
same,TGI,SK-MEL-5 melanoma,29.9 µM
same,TGI,SK-MEL-2 melanoma,39.7 µM
same,TGI,786-0 renal,44.5 µM
same,TGI,SF-539 CNS,32.3 µM
same,TGI,NCI-H522 lung,72.7 µM
same,TGI,CAKI-1 renal,> 100 µM
same,TGI,KM20L2 colon,> 100 µM
same,TGI,TK-10 renal,93.2 µM
same,TGI,KM12 colon,37.1 µM
same,TGI,A549 NSCLC,79.5 µM
same,TGI,A498 renal,54.5 µM
same,TGI,SNB-19 CNS,> 100 µM
same,TGI,EKVX NSCLC,42.7 µM
same,TGI,HCT-116 colon,29.7 µM
same,TGI,MOLT-4 leukemia,46.6 µM
same,TGI,UACC-257 melanoma,44.7 µM
same,TGI,HOP-18 NSCLC,62.5 µM
same,TGI,CCRF-CEM leukemia,83.6 µM
same,TGI,HOP-62 NSCLC,35.3 µM
same,TGI,OVCAR-8 ovarian,43.5 µM
same,TGI,LXFL 529 NSCLC,80.6 µM
same,TGI,SNB-75 CNS,76.7 µM
same,TGI,XF 498 CNS,31.2 µM
same,TGI,UO-31 renal,19.8 µM
same,TGI,HCC-2998 colon,38.4 µM
same,TGI,K-562 leukemia,> 100 µM
same,TGI,ACHN renal,76.3 µM
same,TGI,HT29 colon,> 100 µM
same,TGI,SK-MEL-28 melanoma,33.4 µM
same,TGI,OVCAR-5 ovarian,> 100 µM
O=C1C(C(Nc2ccccc2)c2ccccc2)=C([O-])c2ccccc21.O=C1C(C(Nc2ccccc2)c2ccccc2)=C([O-])c2ccccc21.[Ni+2] (stereo not drawn),GI50,DLD-1 colon,4.2 µM
same,TGI,DLD-1 colon,> 100 µM
same,GI50,RXF 393 renal,4.9 µM
same,TGI,RXF 393 renal,85 µM
same,GI50,SNB-78 CNS,7.6 µM
same,TGI,SNB-78 CNS,> 100 µM
same,GI50,MALME-3M melanoma,7.91 µM
same,TGI,MALME-3M melanoma,> 100 µM
same,GI50,SW-620 colon,5.3 µM
same,TGI,SW-620 colon,> 100 µM
same,GI50,SN12C renal,4.56 µM
same,TGI,SN12C renal,> 100 µM
same,GI50,NCI-H460 lung,4.46 µM
same,TGI,NCI-H460 lung,> 100 µM
same,GI50,M14 melanoma,7.99 µM
same,TGI,M14 melanoma,> 100 µM
same,GI50,OVCAR-3 ovarian,22.2 µM
same,TGI,OVCAR-3 ovarian,66.4 µM
same,GI50,SF-295 CNS,3.69 µM
same,TGI,SF-295 CNS,> 100 µM
same,GI50,SF-268 CNS,3.35 µM
same,TGI,SF-268 CNS,> 100 µM
same,GI50,NCI-H23 lung,5.23 µM
same,TGI,NCI-H23 lung,> 100 µM
same,GI50,OVCAR-4 ovarian,16.5 µM
same,TGI,OVCAR-4 ovarian,> 100 µM
same,GI50,HCT-15 colon,4.09 µM
same,TGI,HCT-15 colon,> 100 µM
same,GI50,SK-MEL-5 melanoma,1.34 µM
same,TGI,SK-MEL-5 melanoma,7.45 µM
same,GI50,SK-MEL-2 melanoma,3.32 µM
same,TGI,SK-MEL-2 melanoma,15.2 µM
same,GI50,SF-539 CNS,3.66 µM
same,TGI,SF-539 CNS,> 100 µM
same,GI50,M19-MEL melanoma,11 µM
same,TGI,M19-MEL melanoma,> 100 µM
same,GI50,CAKI-1 renal,28.8 µM
same,TGI,CAKI-1 renal,> 100 µM
same,GI50,KM20L2 colon,24.4 µM
same,TGI,KM20L2 colon,77.7 µM
same,GI50,TK-10 renal,12.8 µM
same,TGI,TK-10 renal,> 100 µM
same,GI50,KM12 colon,4.01 µM
same,TGI,KM12 colon,> 100 µM
same,GI50,LOX IMVI melanoma,5.81 µM
same,TGI,LOX IMVI melanoma,> 100 µM
same,GI50,A549 NSCLC,4.17 µM
same,TGI,A549 NSCLC,> 100 µM
same,GI50,A498 renal,7.57 µM
same,TGI,A498 renal,> 100 µM
same,GI50,SNB-19 CNS,25.6 µM
same,TGI,SNB-19 CNS,56.7 µM
same,GI50,EKVX NSCLC,3.33 µM
same,TGI,EKVX NSCLC,9.82 µM
same,GI50,HCT-116 colon,3.05 µM
same,TGI,HCT-116 colon,> 100 µM
same,GI50,MOLT-4 leukemia,3.71 µM
same,TGI,MOLT-4 leukemia,> 100 µM
same,GI50,UACC-257 melanoma,42.3 µM
same,TGI,UACC-257 melanoma,> 100 µM
same,GI50,HOP-18 NSCLC,31.1 µM
same,TGI,HOP-18 NSCLC,> 100 µM
same,GI50,CCRF-CEM leukemia,3.96 µM
same,TGI,CCRF-CEM leukemia,> 100 µM
same,GI50,HOP-62 NSCLC,14.2 µM
same,TGI,HOP-62 NSCLC,> 100 µM
same,GI50,SK-OV-3 ovarian,2.66 µM
same,TGI,SK-OV-3 ovarian,6.78 µM
same,GI50,OVCAR-8 ovarian,4.43 µM
same,TGI,OVCAR-8 ovarian,> 100 µM
same,GI50,NCI-H226 lung,17.9 µM
same,TGI,NCI-H226 lung,> 100 µM
same,GI50,IGROV1 ovarian,4.9 µM
same,TGI,IGROV1 ovarian,> 100 µM
same,GI50,SNB-75 CNS,6.34 µM
same,TGI,SNB-75 CNS,94.7 µM
same,GI50,XF 498 CNS,4.9 µM
same,TGI,XF 498 CNS,54.8 µM
same,GI50,UO-31 renal,11.5 µM
same,TGI,UO-31 renal,> 100 µM
same,GI50,UACC-62 melanoma,6.59 µM
same,TGI,UACC-62 melanoma,51 µM
same,GI50,HCC-2998 colon,4.41 µM
same,TGI,HCC-2998 colon,> 100 µM
same,GI50,K-562 leukemia,3.59 µM
same,TGI,K-562 leukemia,> 100 µM
same,GI50,ACHN renal,7.81 µM
same,TGI,ACHN renal,> 100 µM
same,GI50,HOP-92 NSCLC,6.14 µM
same,TGI,HOP-92 NSCLC,55.6 µM
same,GI50,HT29 colon,4 µM
same,TGI,HT29 colon,> 100 µM
same,GI50,SR leukemia,3.72 µM
same,TGI,SR leukemia,> 100 µM
same,GI50,SK-MEL-28 melanoma,9.95 µM
same,TGI,SK-MEL-28 melanoma,> 100 µM
same,GI50,OVCAR-5 ovarian,3.55 µM
same,TGI,OVCAR-5 ovarian,49.5 µM
